Test results: patent publication EP4699605A1, “USE OF NOVEL COMPOUND FOR TREATING INTRACTABLE DISEASES” (YJ Cerapeutics Inc., priority 2023, dated 2024)

What was measured:
JAK/STAT3 pathway = experiment: Signaling pathway analysis in SNI model (Western blot): JAK/STAT3; type: in vivo, Sprague-Dawley rats; details: 4 weeks after nerve injury
Experimental: (§1) To determine through which signaling pathway YJ102 inhibited a neuroinflammatory response, there was analyzed increased expression and activation of histone demethylase JMJD3 and expression changes of factors associated with JAK/STAT3 pathway, mTOR pathway, and TRPM7-mediated pathway, which were known as important regulatory mechanisms and epigenetic regulators mediating the neuroinflammatory response, in the tissues of the SNI animal model 4 weeks after nerve injury.

[1] = Observation of sedation as a side effect at high doses; type: in vivo, rats; details: 100 mg/kg
inflammatory factors = experiment: Inflammatory cytokine and chemokine expression in bladder after SCI (RT-PCR, Western blot); type: in vivo, Sprague-Dawley rats; details: bladder tissue after spinal cord injury
From the text: To confirm the effect of YJ102 on the expression of inflammatory factors in the bladder after spinal cord injury, the expression of inflammatory cytokines and chemokines, COX-2, iNOS, IL-6, IL-1β, MIP-1α, MIP-1β, MIP-2α, and Gro-α in bladder tissue was confirmed by RT-PCR analysis and Western blot analysis using the primers in Table 2 above. In addition, even in the Raw 264.7 cell line, the expression was verified by RT-PCR analysis.

[2] = system: nerve injury animal models (SCI, LSS, SNI); experiment: Mechanical allodynia (von-Frey filaments, 50% paw withdrawal threshold) in nerve injury animal models; type: in vivo, Sprague-Dawley rats
Experimental: To be used as a central nerve injury animal model, a traumatic spinal cord injury (SCI) model was prepared (FIG. 1A). Specifically, 230 to 250 g of male adult Sprague-Dawley rats were anesthetized by intraperitoneal injection of chloral hydrate (500 mg/kg), and then the back and neck regions were shaved, and the spinal cord under the back and neck regions was exposed without damaging the dura mater, and a laminectomy was performed at T9 to T10 levels. To stabilize the spine, the spinous processes of T8 and T11 were fixed, and the spine was damaged by free-falling a 10 g weight from a height of 25 mm using an NYU impactor onto the back surface of the exposed spinal cord and then the rats were left in a temperature and humidity-controlled chamber overnight while covering the muscles and skin. After surgery, the rats were subcutaneously injected with a supplement solution (5 ml, lactated ringer) and injected with antibiotics (gentamicin, 5 mg/kg, intramuscular injection) once daily for 5 days. The body weight, remaining food, and the weight of water were confirmed and recorded for all animals, and the bladder was emptied twice daily by passive bladder massage until reflex micturition was established. At this time, a Sham group was a group that was subjected to only laminectomy without damage.
To be used as a peripheral nerve injury animal model, a lumbar spinal stenosis (LSS) model was prepared (FIG. 1B). Specifically, 260 to 280 g of adult male Sprague-Dawley rats were anesthetized with intraperitoneal injection of chloral hydrate (500 mg/kg), the back region was shaved, and then the spinal plate was exposed at L4 to S2 levels. After removing the ligamentous section between L4 and L5, a trapezoidal silicone block (1.00 mm long × 1.3 to 1.2 mm wide × 1.0 mm high) was inserted into the epidural space below the L5 and L6 spinal plates without damaging the dural sac. At this time, a Sham group was a group that was subjected to only posterior […] on the animal without inserting a silicone block.
To be used as a peripheral nerve injury animal model, a sciatic nerve injury (SNI) model was prepared (FIG. 1C). Specifically, 200 to 220 g of male adult Sprague-Dawley rats were anesthetized by intraperitoneal injection of chloral hydrate (500 mg/kg), and then three terminal branches (tibial, common peroneal, and sural nerves) of the right sciatic nerve were approached, and the tibia nerve and the peroneal nerve were tightly ligated with 4-0 silk, and neurectomy was performed at a distal 3 mm position of the ligation site. At this time, a Sham group was a group that exposed only the sciatic nerve without damage.
In order to confirm a neuropathic pain inhibitory effect of YJ102 (Chemical Formula 1), a compound of the present disclosure, in the three nerve injury animal models prepared in Example 1 above, rats having pain on week 3 (SNI model) or week 4 (SCI model and LSS model) after surgery were selected and administered orally (p.o.) at 10 mg/kg or 20 mg/kg of YJ102 dissolved in a solution of DMSO, methyl pyrrolidinone, and water (1 : 1.5 : 1), or intraperitoneally injected (i.p. injection) at 1, 2, or 5 mg/kg of YJ102. In a positive control group, gabapentin or pregabalin dissolved in saline was intraperitoneally injected at a concentration of 5 mg/kg, and in a Vehicle group, the same amount of a solution of DMSO, methyl pyrrolidinone, and water was administered. Thereafter, in order to measure mechanical allodynia, the rats were located at the bottom of a transparent plastic box (10 cm × 10 cm) on top of a wire mesh (3 mm × 3 mm) and subjected to an adaptation period for approximately 20 minutes. Von-Frey filaments were applied to the soles of both paws and used with stiff nylon von-Frey monofilament series ([…], Stoelting, WoodDale, IL, USA; equivalent in grams to 0.4, 0.6, 1.0, 2.0, 4.0, 6.0, 8.0 and 15.0) with logarithmic increases in tactile (mechanical) sensitivity. […]

TRPM7 = experiment: Signaling pathway analysis in SNI model (Western blot): TRPM7 expression; type: in vivo, Sprague-Dawley rats; details: 4 weeks after nerve injury
Experimental: as §1

JMJD3 = experiment: Signaling pathway analysis in SNI model (Western blot): JMJD3 expression and activation; type: in vivo, Sprague-Dawley rats; details: 4 weeks after nerve injury
Experimental: as §1

[3] = all three models (SCI, LSS, SNI), orally 10 mg/kg or 20 mg/kg

Compound: CCc1ccc(N(C(=O)COC)c2nc3cc(Cl)ccc3o2)cc1 [YJ102]
- phosphorylation of JAK2 (JAK/STAT3 pathway): significantly reducing
- phosphorylation of STAT3 (JAK/STAT3 pathway): significantly reducing
- sedation as a side effect [1]: not observed
- expression of COX-2, iNOS, IL-6, IL-1β, MIP-1α, MIP-1β, MIP-2α, and Gro-α (inflammatory factors): significantly reduced
- duration of the analgesic effect [2, 3]: ≥ 4 h
- time from which the mechanical allodynia threshold was increased after administration [2, 3]: 30 min
- analgesic effect compared with gabapentin or pregabalin ([2]; intraperitoneal, same concentration as gabapentin or pregabalin, SCI, LSS, SNI models): more than twice as high
- duration of the analgesic effect compared with existing drugs ([2]; intraperitoneal, versus gabapentin and pregabalin, SCI, LSS, SNI models): more than three times longer
- expression of TRPM7 (TRPM7): inhibited
- demethylation activation of H3K27Me3 (JMJD3): significantly inhibited
- expression of JMJD3 (JMJD3): significantly inhibited
